Test results from patent publication US20100249064A1, “METHODS AND COMPOSITIONS FOR TREATING DISEASES AND CONDITIONS INVOLVING HIGHER MOLECULAR WEIGHT HYALURONAN” (University of Chicago, priority 2007, published 2010).
Entries after “also recorded” stand apart in the source; their conditions may differ.

What was measured:
ARDS = conditions: cited from earlier work; for Outcome (clinical trials in ARDS): patients with ARDS
Rac1 = Rac1 activation assay, HGF; assay type: cell-based, human; conditions: HGF 25 ng/ml
Description: Rac1 Activation Assay—Rac1 activity assays were performed as described (Ren et al., 1999) in human lung EC.

[1] = test system: LPS-induced murine lung vascular permeability; experiment: LPS-induced murine lung vascular permeability, bronchioalveolar lavage (BAL) protein and cytokines; assay type: in vivo, mouse
Description: Animal Preparation and Treatment—Male C57BL/6J and CD44 knockout mice (8-10 weeks, Jackson Laboratories, Bar Harbor, Me.) were anesthetized with intraperitoneal ketamine (150 mg/kg) and acetylpromazine (15 mg/kg) according to approved protocols. LPS (2.5 mg/kg) or saline (control) were instilled intratracheally and four hours later, HGF (50 μg/kg) or saline control delivered intravenously through the internal jugular vein. The animals were allowed to recover for 24 h followed by bronchioalveolar lavage protein analysis and/or lung immunohistochemistry.
Determination of Bronchioalveolar Lavage Protein Concentration—Bronchioalveolar lavage (BAL) was performed by an intratracheal injection of 1 cc of Hank's balanced salt solution followed by gentle aspiration. The recovered fluid was processed for protein concentration (BCA Protein Assay Kit; Pierce Chemical Co., Rockford, Ill.) as described (Su et al., 2004).
Animals. Male C57BL/6J mice, CD44 knockout mice, Caveolin-1 knockout mice (8-10 weeks, Jackson Laboratories, Bar Harbor, Me.) were anesthetized with intraperitoneal ketamine (150 mg/kg) and acetylpromazine (15 mg/kg) according to approved protocols. LPS (2.5 mg/kg) or saline (control) were instilled intratracheally and four hours later, HMW-HA (1.5 mg/kg) or saline control delivered intravenously through the internal jugular vein. The animals were allowed to recover for 24 hours followed by bronchioalveolar lavage protein analysis and/or lung immunohistochemistry.
Determination of protein concentration. Total protein concentration. TGF-alpha concentration. TGF-beta1 concentration. Bronchioalveolar lavage (BAL) was performed by an intratracheal injection of 1 cc of Hank's balanced salt solution followed by gentle aspiration. The recovered fluid was processed for protein concentration (BCA Protein Assay Kit; Pierce Chemical Co., Rockford, Ill.) or used to determine TNF-α and TGF-β1 concentrations using quantitative sandwich enzyme immunoassays (R & D Systems, Minneapolis, Minn.).
Animal Preparation and Treatment. Male C57BL/6J, B6129N2, CD44^−/− or caveolin-1^−/− mice (8-10 weeks, Jackson Laboratories, Bar Harbor, Me.) were anesthetized with intraperitoneal ketamine (150 mg/kg) and acetylpromazine (15 mg/kg) before exposure of the right internal jugular vein via neck incision. LPS (2.5 mg/kg) or water (control) were instilled intratracheally. Four hours later, mice receive high MW HA (1.5 mg/kg) or water control through the internal jugular vein. The animals were allowed to recover for 24 hours after LPS before bronchioalveolar lavage protein and cytokine concentration and/or lung immunohistochemistry/immunoblot analysis (Peng et al., 2004).
Determination of Bronchoavleolar Lavage Protein and Cytokine Concentration. Bronchioalveolar lavage (BAL) was performed by an intratracheal injection of 1 cc of Hank's balanced salt solution followed by gentle aspiration. The recovered fluid was processed for protein concentration (BCA Protein Assay Kit; Pierce Chemical Co., Rockford, Ill.) (Peng et. al., 2004). Cytokines (IL-6, TNFalpha) were measured using a Quantikine sandwich ELISA kit (R & D Systems).

[2] = test system: c-Met, CD44v10, Tiam1, cortactin, dynamin 2 in CEM; experiment: HGF-induced recruitment of proteins to caveolin-enriched microdomains (CEM); assay type: cell-based, human
Description: Caveolin-enriched microdomain (CEM) isolation—Caveolin-enriched microdomain known as detergent-resistant membranes (DRM) or lipid rafts were isolated from HPMVEC (Singleton et al., 2006; Singleton et al., 2005). Triton X-100-insoluble materials were mixed with 0.6 ml of cold 60% Optiprep™ and then overlaid with 0.6 ml of 40%-20% Optiprep™. Gradients were centrifuged (35,000 rpm) in SW60 rotor for 12 h at 4° C. and different fractions were collected and analyzed.
Immunoprecipitation and Immunoblotting—Cellular materials from treated or untreated HPMVEC were incubated with IP buffer (50 mM HEPES (pH 7.5), 150 mM NaCl, 20 mM MgCl2, 1% Nonidet P-40 (NP-40), 0.4 mM Na3VO4, 40 mM NaF, 50 μM okadaic acid, 0.2 mM phenylmethylsulfonyl fluoride, 1:250 dilution of Calbiochem protease inhibitor mixture 3). Following immunoprecipitation with either anti-CD44 or anti-dynamin 2 IgG, the samples were subjected to SDS-PAGE in 4-15% polyacrylamide gels, transferred onto Immobilon™ membranes, and developed with specific primary and secondary antibodies. Enhanced chemiluminescence (Amersham Biosciences) was used to visualize immunoreactive bands. In some instances, standardized average grey values (S.A.G.V., processed from ImageQuant™ software (Amersham Biosciences)) were obtained for immunoreactive bands for quantification.
Determination of Complex Formation between CD44 and c-Met—Solubilized CEM proteins in IP buffer (see above) were immunoprecipitated with rat anti-CD44 antibody or anti-c-Met antibody followed by SDS-PAGE in 4-15% polyacrylamide gels and transfer onto Immobilon™ membranes (Millipore Corp., Bedford, Mass.). Nonspecific sites were blocked with 5% bovine serum albumin, and then the blots were incubated with either rat anti-CD44 antibody or mouse anti-c-Met antibody followed by incubation with horseradish peroxidase (HRP)-labeled goat anti-mouse or goat anti-rat IgG. Visualization of immunoreactive bands was achieved using enhanced chemiluminescence (Amersham Biosciences).

MARCKS and NHE1 = experiment: LPS-induced phosphorylation of MARCKS and NHE1 (immunoprecipitation/immunoblot); assay type: cell-based, human; conditions: LPS 1 μg/ml, 4 hours, HMW-HA 100 nM or Y-27632 500 nM
[3] = molecular target: Hyaluronic Acid Binding Protease 2 (HABP2), human (human, UniProt Q14520 24-560, limits assumed); experiment: anti-HABP2 immunoprecipitation of EC media, non-reducing SDS-PAGE, immunoblot with anti-HABP2 or anti-C1INH
Chain of Hyaluronic Acid Binding Protease 2 (HABP2), human (Q14520 24-560 limits assumed): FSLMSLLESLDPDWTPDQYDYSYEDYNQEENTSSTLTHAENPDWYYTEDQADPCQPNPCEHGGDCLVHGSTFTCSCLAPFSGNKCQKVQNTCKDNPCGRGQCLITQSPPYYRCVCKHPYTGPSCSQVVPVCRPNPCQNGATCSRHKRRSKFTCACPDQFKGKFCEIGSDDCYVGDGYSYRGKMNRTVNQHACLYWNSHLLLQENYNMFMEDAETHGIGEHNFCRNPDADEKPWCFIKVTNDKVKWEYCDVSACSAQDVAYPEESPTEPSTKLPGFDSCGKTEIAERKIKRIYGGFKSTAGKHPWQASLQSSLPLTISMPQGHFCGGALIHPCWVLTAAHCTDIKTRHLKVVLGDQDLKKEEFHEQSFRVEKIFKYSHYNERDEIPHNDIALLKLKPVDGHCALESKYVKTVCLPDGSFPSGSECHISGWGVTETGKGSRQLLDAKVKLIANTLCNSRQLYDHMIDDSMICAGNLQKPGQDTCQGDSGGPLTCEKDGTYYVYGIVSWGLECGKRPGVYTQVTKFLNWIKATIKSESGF

purified HABP2 = molecular target: T1, purified HABP2 (Homo sapiens, UniProt Q14520); experiment: HABP2 protease assay (QuantiCleave, succinylated casein); assay type: biochemical; conditions: 100 μM purified PABD, 500 nM HMW-HA or LMW-HA
T1 construct: host or cells: human pulmonary endothelial cells (EC); secreted into the medium, immunoprecipitated with anti-HABP2 antibody
T1 sequence (Q14520 24-560): as the sequence (Q14520 24-560 limits assumed) above
Description: HABP2 protease assay. Protease activity is measured using the QuantiCleave™ Protease Assay Kit (Pierce). Briefly, the immunobeads are incubated with succinylated casein for one hour followed by development with TNBSA (2,4,6-trinitrobenzene sulfonic acid) and read at 450 nm.
HABP2 protein purification and protease activity determination. Media from HABP2 overexpression vector-transfected EC (Origene) was immunoprecipitated with anti-HABP2 antibody-conjugated Sepharose beads (Sigma). The immunobeads were then extensively washed in 50 mM Borate, pH=8.5 and eluted with 1M NaCl with 0.1% NP-40 and dialyzed against a 1,000 fold excess of 50 mM Borate, pH=8.5. Protein assays were performed to quantitate total protein. The purified protein was run on SDS-PAGE and either immunoblotted with anti-HABP2 antibody (Novus Biologicals) or stained with Imperial™ protein stain (Pierce) to check for purity. Protease activity was measured using the QuantiCleave™ Protease Assay Kit (Pierce). Briefly, the immunobeads were incubated with succinylated casein for one hour followed by development with TNBSA (2,4,6-trinitrobenzene sulfonic acid) and read at 450 nm.
Determination of the role of HMW-HA/HABP2/C1INH interactions in regulating angiogenesis in vitro. Human pulmonary EC (Cambrex), grown in EBM-2 complete medium (Cambrex) at 37° C. in a humidified atmosphere of 5% CO2, 95% air, with passages 6-10 used for experimentation will be treated with or without 100 nM HMW-HA and/or 100 nM VEGF in the presence or absence of HABP2 and/or C1INH overexpression vectors (Origene), exogenous purified recombinant HABP2 polyanion binding domain and/or C1INH (Novus Biologicals) and/or siRNA (scramble, HABP2 or C1INH). For HABP2 protease activity determination, media from HABP2 overexpressing EC (see above) was immunoprecipitated with anti-HABP2 antibody-conjugated Sepharose beads (Sigma). The immunobeads were then extensively washed in 50 mM Borate, pH=8.5 and protease activity was measured using the QuantiCleave™ Protease Assay Kit (Pierce). Briefly, the immunobeads were incubated with succinylated casein for one hour followed by development with TNBSA (2,4,6-trinitrobenzene sulfonic acid) and read at 450 nm.

Molecule: C[C@@H](O)CCCCn1c(=O)c2c(ncn2C)n(C)c1=O [Lisofylline]
- Outcome (clinical trials in ARDS) (ARDS): trials failed to show efficacy in increasing

Molecule: HGF: Recombinant human hepatocyte growth factor (HGF), Chemicon International
- Rac1 activation (Rac1): induced Rac1 activation
- protective effect on LPS-induced pulmonary hyper-permeability (BAL) in knockout mice ([1]; CD44 knockout (and, where stated, Caveolin-1 knockout) mice, same regimen): markedly attenuated in the CD44 knockout mouse; also recorded: significant difference (p<0.05) between the wildtype and CD44 knockout mouse HGF+LPS treatment
- LPS-induced pulmonary hyper-permeability (BAL protein concentration) ([1]; wildtype C57BL/6J mice, LPS 2.5 mg/kg intratracheally, HMW-HA 1.5 mg/kg or HGF 50 μg/kg intravenously 4 hours after LPS, BAL at 24 hours): pulmonary hyper-permeability was attenuated; also recorded: significant difference (p<0.05) between LPS treatment and HGF+LPS treatment
- recruitment of Tiam1, cortactin and dynamin 2 to CEM ([2]; HGF 25 ng/ml): increased recruitment to these caveolin-enriched plasma membrane microdomain structures
- recruitment of total CD44v10 into CD44s-containing CEM ([2]; HGF 25 ng/ml): ~70%
- recruitment of total c-Met into CD44s-containing CEM ([2]; HGF 25 ng/ml): ~55%
- association of c-Met with CD44v10 in CEM ([2]; HGF 25 ng/ml, 5, 15 or 30 min): induce an association that is time-dependent of c-Met with CD44v10

Molecule: Nitric Oxide [NO]
- adverse effects (ARDS; ARDS patients): causes methemoglobinemia, increased
- pulmonary artery pressure (ARDS; ARDS patients): NO reduces pulmonary artery pressure but
- Outcome (clinical trials in ARDS) (ARDS): several multicenter clinical trials have shown no

Molecule: C[C@H]1C[C@@H]2[C@H]([C@@H](O)C[C@@]3(C)[C@H]2CC[C@]3(O)C(=O)CO)[C@@]2(C)C=CC(=O)C=C12 [Methyprednisolone]
- hospital mortality (ARDS; administered through the fibroproliferative stage of ARDS, 62% in placebo cohort): hospital mortality to 12% from 62% in placebo

Molecule: C[C@@H](N)[C@H]1CC[C@H](C(=O)Nc2ccncc2)CC1 [Y-27632, reference compound]
- LPS-induced phosphorylation of MARCKS and NHE1 (MARCKS and NHE1): inhibit LPS-induced phosphorylation of MARCKS and NHE1

B1: C1INH, human (other, UniProt P05155 23-500, looked up)
chain: NPNATSSSSQDPESLQDRGEGKVATTVISKMLFVEPILEVSSLPTTNSTTNSATKITANTTDEPTTQPTTEPTTQPTIQPTQPTTQLPTDSPTQPTTGSFCPGPVTLCSDLESHSTEAVLGDALVDFSLKLYHAFSAMKKVETNMAFSPFSIASLLTQVLLGAGENTKTNLESILSYPKDFTCVHQALKGFTTKGVTSVSQIFHSPDLAIRDTFVNASRTLYSSSPRVLSNNSDANLELINTWVAKNTNNKISRLLDSLPSDTRLVLLNAIYLSAKWKTTFDPKKTRMEPFHFKNSVIKVPMMNSKKYPVAHFIDQTLKAKVGQLQLSHNLSLVILVPQNLKHRLEDMEQALSPSVFKAIMEKLEMSKFQPTLLTLPRIKVTTSQDMLSIMEKLEFFDFSYDLNLCGLTEDPDLQVSAMQHQTVLELTETGVEAAAASAISVARTLLVFEVQQPFLFVLWDQQHKFPVFMGRVYDPRA
notes: also called C1NH; C1 NH
- binding result [3]: binds

B2: recombinant peptide of the PABD of HABP2: recombinant HABP2 polyanion binding domain, amino acids 110-188 of SEQ ID NO:2 (SEQ ID NO:37) (protein, listed as Homo sapiens)
chain: KVQNTCKDNPCGRGQCLITQSPPYYRCVCKHPYTGPSCSQVVPVCRPNPCQNGATCSRHKRRSKFTCACPDQFKGKFCE
- blocking of HA effects on HABP2 protease activity (purified HABP2): The effects of LMW-HA, but not HMW-HA, were blocked
